# Measured values published in patent publication US20080176787A1, “Parathyroid hormone analogues and methods of use” (priority 2005, published 2008).
# Positions of bridges follow the written chain, without caps; N, C: chain ends. Residues, ends and D or L forms follow the SMILES beside them.
# What was measured:
# Format in all cases: in vivo
# monkey = assay: Toxicity, 12 mth monkey
# From the text: (§1) A NoAEL was not established for the monkey. […] Ostabolin-C™ is at least 4-fold safer than PTH-(1-34).
# Toxicity, 12 mth monkey = details: in vivo; Ostabolin C, 12 mth monkey
# From the text: as §1
# [1] = system: gonad-intact cynomolgus monkeys; assay: 52-week (12 months) daily subcutaneous study in gonad-intact young cynomolgus monkeys: bone mass, histomorphometry, % cortical porosity; details: for % Cortical Porosity: Tibial Mid-Diaphysis, 12 months
# Description: The peptide [Leu^27]cyclo[Glu^22-Lys^26]-hPTH-(1-31)-NH2 Ostabolin-C™ was administered daily by subcutaneous injection to gonad-intact cynomolgus monkeys (4/sex/group) at dose levels of 0, 2, 10 and 25 μg/kg for 52 weeks. Monkeys were 30 to 40 months of age (2.3-3.5 kg) at treatment start. Tibiae were retained for histomorphometry following labeling with calcein green 15 and 5 days prior to euthanasia. Bone mass, as measured by DXA (dual-energy x-ray absorptiometry) and QCT (quantitative computed tomography), was increased at the lumbar spine, femur and tibia. Changes in vertebral BMD (bone mineral density) translated into significant increases in bone strength. […] Tibial cancellous bone volume increased by more than 50% in all the peptide [Leu^27]cyclo[Glu^22-Lys^26]-hPTH-(1-31)-NH2 treated groups compared to controls and in the tibial mid-diaphysis, increases in cortical width and relative cortical area with concurrent decreases in medullary area were observed. […] Increases in indices of bone formation were associated with decreases in indices of bone resorption (decreased bone resorption markers, decreased osteoclast surface area, minimal cortical porosity), consistent with the uncoupling of these events. This combination of anabolic and anti-catabolic actions may have significant therapeutic value in the treatment of osteoporosis.
# (§2) Comparative data regarding increase in cortical bone porosity in monkey subjects using Ostabolin C at a variety of doses and using the prior art PTHs 1-34 is shown below.
# [2] = system: Gonad intact young Cynomolgus monkeys; assay: 6-week daily study in gonad intact young cynomolgus monkeys: % cortical porosity; details: Tibial Mid-Diaphysis, 6 weeks
# From the text: as §2
# [3] = Ostabolin-C Inhalation Powder (OCIP) Phase I pharmacokinetics; details: female, human, blood
# Description: A Phase I clinical study was undertaken using Ostabolin-C™ Inhalation Powder (OCIP) to establish an MTD in post-menopausal women, to compare its PK profile with Phase II sub-cutaneous doses, and to evaluate biological activity with cAMP and biomarkers of bone turnover. The OCIP was administered using the Nektar T-326 dry powder inhaler (DPI), which is well-accepted by osteoporosis patients in focus groups. An ascending dose tolerance was used. Each cohort was randomized and included 6 active patients and 2 placebo patients. The patients were post menopausal healthy females that were older than 40 years of age and had no known history of osteoporosis or other bone disease.
# The primary measurements were taken at clinical laboratories where patient surveys were taken and the patient could describe any adverse events. Additionally the patients' vital signs were taken with Holter monitoring of EKGs and Spirometry. Pharmacokinetics, such as Ostabolin-C blood levels, PK parameters after a single dose and after 7 days of daily dosing were also measured. Pharmacodynamics were also monitored for changes in bone markers including P1NP, Osteocalcin, NTx, CTx, and urine cyclic AMP.
# rats = assay: Rat oncogenicity study, 104 weeks subcutaneous; details: 0.5, 5, 30, and 50 μg/kg/day SC
# Description: Prior art PTHs cause osteosarcomas in animals if administered over a course of two years. The PTH peptides of the present invention, including Ostabolin-C™ and PTH 1-30, are administered subcutaneously to rats for 104 weeks at doses of 0.5, 5, 30, and 50 μg/kg/day. The test article is administered subcutaneously. […] This difference could be due to the different amino acids sequences and/or to the different signalling pathways activated by the PTH molecules.
compound,measurement,setting,value
"CC[C@H](C)[C@H](NC(=O)[C@H](CCC(=O)O)NC(=O)[C@H](CO)NC(=O)[C@@H](NC(=O)[C@@H](N)CO)C(C)C)C(=O)N[C@@H](CCC(N)=O)C(=O)N[C@@H](CC(C)C)C(=O)N[C@@H](CCSC)C(=O)N[C@@H](Cc1c[nH]cn1)C(=O)N[C@@H](CC(N)=O)C(=O)N[C@@H](CC(C)C)C(=O)NCC(=O)N[C@@H](CCCCN)C(=O)N[C@@H](Cc1c[nH]cn1)C(=O)N[C@@H](CC(C)C)C(=O)N[C@@H](CC(N)=O)C(=O)N[C@@H](CO)C(=O)N[C@@H](CCSC)C(=O)N[C@@H](CCC(=O)O)C(=O)N[C@@H](CCCN=C(N)N)C(=O)N[C@H](C(=O)N[C@H]1CCC(=O)NCCCC[C@@H](C(=O)N[C@@H](CC(C)C)C(=O)N[C@@H](CC(C)C)C(=O)N[C@@H](CCC(N)=O)C(=O)N[C@@H](CC(=O)O)C(=O)N[C@H](C(N)=O)C(C)C)NC(=O)[C@H](CCCN=C(N)N)NC(=O)[C@H](CC(C)C)NC(=O)[C@H](Cc2c[nH]c3ccccc23)NC1=O)C(C)C [Ostabolin-C, [Leu^27]cyclo[Glu^22-Lys^26]-PTH-(1-31)-NH2] (H-SVSEIQLMHNLGKHLNSMERVEWLRKLLQDV-NH2; lactam 22-26)",fold less nephrotoxic than PTH-(1-34),monkey; 12 mth monkey,>4-fold less
same,hypercalaemic (DIFFERENCES column),monkey; 12 mth monkey,Ostabolin-C not
same,Bone hypertrophy,"monkey; Ostabolin C 0, 2, 10, 25 μg/kg, 12 mth monkey",hypertrophy all
same,fold safer than PTH-(1-34),monkey; pre-clinical toxicity,at least 4 fold
same,nephrotoxicity,monkey; pre-clinical toxicity,nephrotoxic only in monkeys
same,NOAEL at 12 mth,"Toxicity, 12 mth monkey",2 µg/kg
same,% Cortical Porosity,"[1]; F, 2 μg/kg/day",2.5 ± 0.41%
same,% Cortical Porosity,"[1]; F, 10 μg/kg/day",2.6 ± 0.85%
same,% Cortical Porosity,"[1]; F, 25 μg/kg/day",3.2 ± 0.87%
same,% Cortical Porosity,"[1]; M, 2 μg/kg/day",4.2 ± 0.29%
same,% Cortical Porosity,"[1]; M, 10 μg/kg/day",5.1 ± 1.08%
same,% Cortical Porosity,"[1]; M, 25 μg/kg/day",8.0 ± 5.54%
same,cortical porosity,"[1]; two highest dose levels, 52 weeks",Only minor increases
same,% Cortical Porosity,"[2]; F, 10 μg/kg/day",3.2 ± 0.97%
same,% Cortical Porosity,"[2]; F, 25 μg/kg/day",4.0 ± 1.25%
same,% Cortical Porosity,"[2]; F, 80 μg/kg/day",10.6 ± 0.35%
same,% Cortical Porosity,"[2]; M, 10 μg/kg/day",3.7 ± 0.70%
same,% Cortical Porosity,"[2]; M, 25 μg/kg/day",5.8 ± 1.82%
same,% Cortical Porosity,"[2]; M, 80 μg/kg/day",16.4 ± 7.14 %
same,Cmax,"[3]; subcutaneous, Day 1, normalized to SC 45 μg",0.0747 ng/mL
same,AUC(0-t),"[3]; subcutaneous, Day 1, normalized to SC 45 μg, read-out: AUC(0-4)",0.0412 ng·h/mL
same,Tmax,"[3]; Day 1, SC, averaged for all subjects",13.2 min
same,half-life,"[3]; Day 1, SC, averaged for all subjects, read-out: T½ (converted)",37.2 min
same,incidence of osteosarcomas compared to prior art PTH peptides,rats,lower incidences of osteosarcomas
